Our source for the relative viability values is the supplement of paper PMC10307832.

Experiment in all cases: relative viability (nuclei count vs DMSO), 5 days (fraction); higher = more cells survive
Compound in the assay “Linsitinib + Olaparib”: C[C@]1(O)C[C@@H](c2nc(-c3ccc4ccc(-c5ccccc5)nc4c3)c3c(N)nccn32)C1 [Linsitinib] + O=C(c1cc(Cc2n[nH]c(=O)c3ccccc23)ccc1F)N1CCN(C(=O)C2CC2)CC1 [Olaparib] (partner 8 µM)
The method in brief:
(§1)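 The day after seeding in 1536-well plates, lung cancer cell lines were treated by pin tool with a single drug, or with a fixed anchor-drug dose together with five library-drug doses (not always all listed) in √10 steps. After 5 days, a combined fix-and-stain solution (final 0.05% Triton X-100, 1% formaldehyde, 1 ug/ml Hoechst) was added. Nuclei counted on 4× images gave relative viability as treated counts over vehicle counts, reported as the median of duplicate plates.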

Compound in the assay “Linsitinib + Phenformin”: C[C@]1(O)C[C@@H](c2nc(-c3ccc4ccc(-c5ccccc5)nc4c3)c3c(N)nccn32)C1 [Linsitinib] + N=C(N)NC(=N)NCCc1ccccc1 [Phenformin] (partner 250 µM)
The method in brief:
as §1

Compound in the assay “Ispinesib + Crizotinib”: Cc1ccc(C(=O)N(CCCN)[C@@H](c2nc3cc(Cl)ccc3c(=O)n2Cc2ccccc2)C(C)C)cc1 [Ispinesib] + C[C@@H](Oc1cc(-c2cnn(C3CCNCC3)c2)cnc1N)c1c(Cl)ccc(F)c1Cl [Crizotinib] (partner 1 µM)
The method in brief: as §1

Compound in the assay “Ispinesib + Phenformin”: Cc1ccc(C(=O)N(CCCN)[C@@H](c2nc3cc(Cl)ccc3c(=O)n2Cc2ccccc2)C(C)C)cc1 [Ispinesib] + N=C(N)NC(=N)NCCc1ccccc1 [Phenformin] (partner 250 µM)
Summed up:
as §1

Take PC-3 [JPC-3]: the relative viability came out at 1.16 with Linsitinib + Olaparib (first compound 0.01 µM); 1.1 with Linsitinib + Olaparib (first compound 0.03162 µM); 1.2 with Linsitinib + Olaparib (first compound 0.1 µM); 1.04 with Linsitinib + Olaparib (first compound 0.3162 µM); 1.02 with Linsitinib + Olaparib (first compound 1 µM); 0.464 with Linsitinib + Phenformin (first compound 0.01 µM). The relative viability turned out to be 0.48 in the assay with Linsitinib + Phenformin (first compound 0.03162 µM); 0.515 with Linsitinib + Phenformin (first compound 0.1 µM); 0.436 with Linsitinib + Phenformin (first compound 0.3162 µM); 0.45 with Linsitinib + Phenformin (first compound 1 µM); 0.906 with Ispinesib + Crizotinib (first compound 0.001 µM); 1.04 with Ispinesib + Crizotinib (first compound 0.003162 µM). For the same cell line, the relative viability is 1.11 in the assay with Ispinesib + Crizotinib (first compound 0.01 µM); 1.04 with Ispinesib + Crizotinib (first compound 0.03162 µM); 0.913 with Ispinesib + Crizotinib (first compound 0.1 µM); 0.494 with Ispinesib + Phenformin (first compound 0.001 µM); 0.475 in the assay with Ispinesib + Phenformin (first compound 0.003162 µM); 0.44 with Ispinesib + Phenformin (first compound 0.01 µM). Further, the relative viability with Ispinesib + Phenformin (first compound 0.03162 µM) came out at 0.461; in the assay with Ispinesib + Phenformin (first compound 0.1 µM), 0.254.

On to NCI-H2126, for which the relative viability stood at 0.962 with Linsitinib + Olaparib (first compound 0.01 µM); 0.957 in the assay with Linsitinib + Olaparib (first compound 0.03162 µM); 0.934 with Linsitinib + Olaparib (first compound 0.1 µM); 0.779 in the assay with Linsitinib + Olaparib (first compound 0.3162 µM); 0.862 in the assay with Linsitinib + Olaparib (first compound 1 µM); 0.531 with Linsitinib + Phenformin (first compound 0.01 µM). Besides, the relative viability in the assay with Linsitinib + Phenformin (first compound 0.03162 µM) worked out at 0.512; in the assay with Linsitinib + Phenformin (first compound 0.1 µM) it was 0.484; with Linsitinib + Phenformin (first compound 0.3162 µM), 0.338; with Linsitinib + Phenformin (first compound 1 µM), 0.319; with Ispinesib + Crizotinib (first compound 0.001 µM) it was 1.03; with Ispinesib + Crizotinib (first compound 0.003162 µM) it was 1.05. Further, the relative viability stood at 1.09 in the assay with Ispinesib + Crizotinib (first compound 0.01 µM); 1.07 with Ispinesib + Crizotinib (first compound 0.03162 µM); 0.923 in the assay with Ispinesib + Crizotinib (first compound 0.1 µM); 0.516 in the assay with Ispinesib + Phenformin (first compound 0.001 µM); 0.531 with Ispinesib + Phenformin (first compound 0.003162 µM); 0.533 with Ispinesib + Phenformin (first compound 0.01 µM). Besides, the relative viability in the assay with Ispinesib + Phenformin (first compound 0.03162 µM) was determined as 0.433; with Ispinesib + Phenformin (first compound 0.1 µM) it was 0.263.

As for LU99A, the relative viability with Linsitinib + Olaparib (first compound 0.01 µM) is 0.3; in the assay with Linsitinib + Olaparib (first compound 0.03162 µM), 0.195; with Linsitinib + Olaparib (first compound 0.1 µM), 0.266; with Linsitinib + Olaparib (first compound 1 µM), 0.255; with Linsitinib + Phenformin (first compound 0.01 µM), 0.919; with Linsitinib + Phenformin (first compound 0.03162 µM), 0.848. Further, the relative viability with Linsitinib + Phenformin (first compound 0.1 µM) worked out at 0.781; with Linsitinib + Phenformin (first compound 0.3162 µM), 0.475; with Linsitinib + Phenformin (first compound 1 µM) it was 0.555; in the assay with Ispinesib + Crizotinib (first compound 0.001 µM) it was 0.503; with Ispinesib + Crizotinib (first compound 0.003162 µM) it was 0.589; in the assay with Ispinesib + Crizotinib (first compound 0.01 µM) it was 0.569. Further, the relative viability in the assay with Ispinesib + Crizotinib (first compound 0.03162 µM) worked out at 0.421; in the assay with Ispinesib + Crizotinib (first compound 0.1 µM), 0.231; in the assay with Ispinesib + Phenformin (first compound 0.001 µM) it was 0.892; in the assay with Ispinesib + Phenformin (first compound 0.003162 µM) it was 0.837; with Ispinesib + Phenformin (first compound 0.01 µM), 0.965; in the assay with Ispinesib + Phenformin (first compound 0.03162 µM), 0.373. Further, in the assay with Ispinesib + Phenformin (first compound 0.1 µM), the relative viability came out at 0.235.

Take NCI-H23: the relative viability was determined as 0.33 with Linsitinib + Olaparib (first compound 0.01 µM); 0.317 in the assay with Linsitinib + Olaparib (first compound 0.03162 µM); 0.29 in the assay with Linsitinib + Olaparib (first compound 0.1 µM); 0.218 with Linsitinib + Olaparib (first compound 0.3162 µM); 0.182 with Linsitinib + Olaparib (first compound 1 µM); 0.821 in the assay with Linsitinib + Phenformin (first compound 0.01 µM). The relative viability was found to be 0.863 with Linsitinib + Phenformin (first compound 0.03162 µM); 0.764 with Linsitinib + Phenformin (first compound 0.1 µM); 0.53 in the assay with Linsitinib + Phenformin (first compound 0.3162 µM); 0.503 in the assay with Linsitinib + Phenformin (first compound 1 µM); 0.475 with Ispinesib + Crizotinib (first compound 0.001 µM); 0.46 in the assay with Ispinesib + Crizotinib (first compound 0.003162 µM). The relative viability is 0.595 with Ispinesib + Crizotinib (first compound 0.01 µM); 0.499 with Ispinesib + Crizotinib (first compound 0.03162 µM); 0.283 with Ispinesib + Crizotinib (first compound 0.1 µM); 0.921 with Ispinesib + Phenformin (first compound 0.001 µM); 0.752 in the assay with Ispinesib + Phenformin (first compound 0.003162 µM); 0.795 in the assay with Ispinesib + Phenformin (first compound 0.01 µM). The relative viability with Ispinesib + Phenformin (first compound 0.03162 µM) was determined as 0.61; with Ispinesib + Phenformin (first compound 0.1 µM) it was 0.171.

With PC-14, the relative viability in the assay with Linsitinib + Olaparib (first compound 0.01 µM) worked out at 0.26; in the assay with Linsitinib + Olaparib (first compound 0.03162 µM), 0.177; with Linsitinib + Olaparib (first compound 0.1 µM) it was 0.303; with Linsitinib + Olaparib (first compound 0.3162 µM) it was 0.233; with Linsitinib + Olaparib (first compound 1 µM), 0.263; with Linsitinib + Phenformin (first compound 0.01 µM), 0.623. Also, the relative viability with Linsitinib + Phenformin (first compound 0.03162 µM) was found to be 0.523; with Linsitinib + Phenformin (first compound 0.1 µM) it was 0.58; with Linsitinib + Phenformin (first compound 0.3162 µM) it was 0.533; with Linsitinib + Phenformin (first compound 1 µM), 0.395; with Ispinesib + Crizotinib (first compound 0.001 µM), 0.967; with Ispinesib + Crizotinib (first compound 0.003162 µM) it was 0.971. Also, the relative viability came out at 1.07 with Ispinesib + Crizotinib (first compound 0.01 µM); 0.873 with Ispinesib + Crizotinib (first compound 0.03162 µM); 0.232 with Ispinesib + Crizotinib (first compound 0.1 µM); 0.607 with Ispinesib + Phenformin (first compound 0.001 µM); 0.755 with Ispinesib + Phenformin (first compound 0.003162 µM); 0.338 with Ispinesib + Phenformin (first compound 0.01 µM). Besides, the figures for the relative viability in the assay with Ispinesib + Phenformin (first compound 0.03162 µM) and in the assay with Ispinesib + Phenformin (first compound 0.1 µM) were 0.122 and 0.0821, respectively.

As to HCC-44, the relative viability came to 1.01 in the assay with Linsitinib + Olaparib (first compound 0.01 µM); 0.924 with Linsitinib + Olaparib (first compound 0.03162 µM); 1 with Linsitinib + Olaparib (first compound 0.1 µM); 0.858 with Linsitinib + Olaparib (first compound 0.3162 µM); 0.916 with Linsitinib + Olaparib (first compound 1 µM); 0.181 with Linsitinib + Phenformin (first compound 0.01 µM). Also, the relative viability in the assay with Linsitinib + Phenformin (first compound 0.03162 µM) amounted to 0.232; in the assay with Linsitinib + Phenformin (first compound 0.1 µM), 0.174; with Linsitinib + Phenformin (first compound 0.3162 µM), 0.143; with Linsitinib + Phenformin (first compound 1 µM) it was 0.136; in the assay with Ispinesib + Crizotinib (first compound 0.001 µM), 0.796; with Ispinesib + Crizotinib (first compound 0.003162 µM), 0.905. Also, the relative viability with Ispinesib + Crizotinib (first compound 0.01 µM) amounted to 0.951; with Ispinesib + Crizotinib (first compound 0.03162 µM), 0.776; with Ispinesib + Crizotinib (first compound 0.1 µM) it was 0.121; with Ispinesib + Phenformin (first compound 0.001 µM) it was 0.252; with Ispinesib + Phenformin (first compound 0.003162 µM), 0.175; in the assay with Ispinesib + Phenformin (first compound 0.01 µM), 0.146. The relative viability in the assay with Ispinesib + Phenformin (first compound 0.03162 µM) came to 0.1; in the assay with Ispinesib + Phenformin (first compound 0.1 µM), 0.0891.
